The values that follow come from patent US20260085073A1, “PYRAZOLYLCARBOXAMIDE COMPOUNDS AND THEIR USE IN THERAPY” (Hotspot Therapeutics, Inc., priority 2022, published 2026).

Structures are written as SMILES.

For this assay, the target named is T1, MALT1 (Homo sapiens, UniProt Q9UDY8).
T1 construct: Avi-tagged FL MALT-1 (Pharmaron, stored at −70° C.); Avi-tag
T1 sequence (Q9UDY8 1-824): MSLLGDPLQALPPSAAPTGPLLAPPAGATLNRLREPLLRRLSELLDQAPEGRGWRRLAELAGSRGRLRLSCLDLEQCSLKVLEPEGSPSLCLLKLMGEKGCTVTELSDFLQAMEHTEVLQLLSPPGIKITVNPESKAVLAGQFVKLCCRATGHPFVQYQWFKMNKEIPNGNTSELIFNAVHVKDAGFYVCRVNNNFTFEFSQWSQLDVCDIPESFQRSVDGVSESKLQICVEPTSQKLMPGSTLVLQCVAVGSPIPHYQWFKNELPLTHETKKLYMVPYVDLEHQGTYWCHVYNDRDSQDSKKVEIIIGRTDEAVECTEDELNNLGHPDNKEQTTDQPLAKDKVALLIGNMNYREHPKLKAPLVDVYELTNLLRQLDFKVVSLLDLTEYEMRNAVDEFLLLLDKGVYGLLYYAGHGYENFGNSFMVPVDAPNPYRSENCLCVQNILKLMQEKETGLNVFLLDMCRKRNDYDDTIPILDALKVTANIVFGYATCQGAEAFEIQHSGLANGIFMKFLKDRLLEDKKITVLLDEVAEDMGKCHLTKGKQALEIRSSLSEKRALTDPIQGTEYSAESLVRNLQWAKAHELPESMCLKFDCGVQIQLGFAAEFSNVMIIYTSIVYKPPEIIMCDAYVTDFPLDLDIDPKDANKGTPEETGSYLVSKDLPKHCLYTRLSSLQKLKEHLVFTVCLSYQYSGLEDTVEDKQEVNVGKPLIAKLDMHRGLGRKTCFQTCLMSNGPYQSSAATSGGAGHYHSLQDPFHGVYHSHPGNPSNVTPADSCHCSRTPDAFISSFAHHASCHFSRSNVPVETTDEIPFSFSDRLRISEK
Description: MALT1 inhibition assay (MALT-1 Fluorogenic Peptide Cleavage Assay, Ac-LRSR-AMC substrate). Type of assay: biochemical. As to conditions: Avi-tagged FL MALT-1, 30 min pre-incubation, 90 min reaction at room temperature, fluorescence intensity. In a few lines: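 Full-length Avi-tagged MALT1 pre-incubated 30 min at room temperature with compounds (2% DMSO final) in HEPES pH 6.89, sodium citrate, TCEP, EDTA, CHAPS buffer. Ac-LRSR-AMC added from 50 µM (Km) or […] working stocks; 90 min at room temperature, AMC fluorescence (ex 342/em 441 nm); IC50 from % inhibition curves.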
The term IC50 denotes the point on the concentration scale where inhibition reaches its midpoint. A lower IC50 goes with greater potency in that assay. For the compound `Cn1nc(-c2ccccc2CC(F)(F)F)cc1C(=O)Nc1ccnc(C(F)(F)F)c1` [Compound I-203, 1-methyl-3-(2-(2,2,2-trifluoroethyl)phenyl)-N-(2-(trifluoromethyl)pyridin-4-yl)-1H-pyrazole-5-carboxamide], the IC50 fell in the range of 2500 to 10000 nM. With `Cn1nc(-c2n[nH]c3ccncc23)c(C(F)(F)F)c1C(=O)Nc1ccnc(C(F)(F)F)c1` [Compound I-239] the figure was above 10000 nM; with `Cn1nc(C(=O)Nc2ccnc(C(F)(F)F)c2)c(C2CC2)c1-c1ccccc1` [Compound I-204, 4-cyclopropyl-1-methyl-5-phenyl-N-(2-(trifluoromethyl)pyridin-4-yl)-1H-pyrazole-3-carboxamide], 2500 to 10000 nM. In turn, `Cn1nc(C(=O)Nc2ccnc(C(F)(F)F)c2)c2c1-c1ccccc1CC2` [Compound I-260] displayed an IC50 of 500 to 2500 nM. For `Cn1nc(-c2cncc(F)c2)c(C(F)(F)F)c1C(=O)Nc1ccnc(C(F)(F)F)c1` [Compound I-81], the half-maximal inhibitory concentration (IC50) was 2500 to 10000 nM.

As to `Cn1nc(C(=O)Nc2cnc(-n3nccn3)c(Cl)c2)c2c1-c1ccccc1CCC2` [Compound I-255], the IC50 was above 10000 nM.

`Cn1nc(-c2cccc3ncccc23)c(C(F)(F)F)c1C(=O)Nc1cnc(-n2nccn2)c(C(F)(F)F)c1` [Compound I-122]: the IC50 was below 500 nM.

Compound `Cn1nc(-c2cnn3ccncc23)c(C(F)(F)F)c1C(=O)Nc1ccnc(C(F)(F)F)c1` [Compound I-74] registered an IC50 above 10000 nM. `Cc1cncc(-c2nn(C)c(C(=O)Nc3ccnc(C(F)(F)F)c3)c2C(F)(F)F)c1` [Compound I-80] had an IC50 above 10000 nM. In turn, `Cn1nc(-c2cccc3nccn23)c(C(F)(F)F)c1C(=O)Nc1cnc(-n2nccn2)c(Cl)c1` [Compound I-163] showed an IC50 below 500 nM. The figure for `Cc1ccc(-c2nn(C)c(C(=O)Nc3ccnc(C(F)(F)F)c3)c2C(F)(F)F)c(Cl)c1` [Compound I-18] is 500 to 2500 nM.

For `Cn1nc(-c2cccc3c(=O)[nH]ccc23)c(C(F)(F)F)c1C(=O)Nc1cnc(-n2nccn2)c(C#N)c1` [Compound I-157], the half-inhibitory concentration (IC50) was below 500 nM. The figure for `Cn1nc(-c2cccc3c(=O)[nH]ccc23)c(C(F)(F)F)c1C(=O)Nc1cnc(-n2nccn2)c(C(F)(F)F)c1` [Compound I-132] is below 500 nM; for `Cn1nc(-c2cccc3scnc23)c(C(F)(F)F)c1C(=O)Nc1ccnc(C(F)(F)F)c1` [Compound I-96] it is below 500 nM.
